The source of these data is US12371428B2 (Exelixis, Inc., priority 2019, dated 2025).

In test [1] the target is Human KDR (residues 790-1356) (Homo sapiens (Human), UniProt P35968). Briefly: Human KDR kinase assay, HTRF KinEase (Example B-2). Format: biochemical. Particulars: protocol of Example B-2 (other compounds). The procedure, abridged: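 Human KDR residues 790-1356 (0.1 ng/well) in buffer with 5 mM MgCl2, 1 mM MnCl2, 1 mM DTT, biotinylated peptide substrate, ATP at Km (4.0 μM), 3% DMSO, 10 compound concentrations; 40 min, room temperature. EDTA stop, streptavidin-XL665/Eu-TK antibody HTRF read 665/620 nm; 4-parameter IC50.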

For test [2], the target named is Human MET (residues 956-1390) (Homo sapiens (Human), UniProt P08581). Kind of test: Human Met kinase assay, HTRF KinEase (Example D-2). Format: biochemical. Particulars: protocol of Example D-2 (other compounds); read-out: c-Met IC50. The procedure, abridged:
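MET kinase domain (956-1390), 0.1 ng/well, in buffer with 5 mM MgCl2, 1 mM DTT and 1 mM MnCl2, phosphorylated a biotinylated peptide at ATP Km for 40 min at RT; 10 concentrations, 3% DMSO final. EDTA-stopped HTRF read after 60 min; IC50 from a 4-parameter logistic fit.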

For test [3], the target named is Mer (phospho-Mer, MERTK-transfected 293A cells) (Homo sapiens (Human), UniProt Q12866). Kind of test: Mer autophosphorylation ELISA in transient transfected 293A cells (Example H). Particulars: cellular activity; Mer autophosphorylation ELISA in transient transfected 293A cells. Format: cell-based. The procedure, abridged: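 293A cells transiently transfected with human MERTK were treated 1 h in serum-free medium with an 8-point compound dilution (0.3% DMSO final). Lysates were assayed by phospho-Mer sandwich ELISA against a phospho-Mer standard; IC50 came from a 4-parameter logistic fit, normalised to DMSO (100%) and reference-inhibitor (0%) controls.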

Test [4] deals with KDR (phospho-KDR, VEGF165-stimulated HUVEC cells) (Homo sapiens (Human), UniProt P35968). Kind of test: KDR autophosphorylation ELISA in HUVEC cells (Example G). Format: cell-based. To be noted: cellular activity; KDR autophosphorylation ELISA in HUVEC cells. Put shortly: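 Cells seeded, grown 24 h at 37 °C, starved 24 h serum-free; cpd 8-pt curve, 0.3% DMSO, 1 h; VEGF165 100 ng/mL, 5 min; cold PBS wash, lysis with orthovanadate and protease/phosphatase inhibitors; pKDR ELISA; IC50 by 4-parameter logistic regression.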

Structures can show the parent of a compound that is named as a salt.

Sequence of Mer (phospho-Mer, MERTK-transfected 293A cells) (Q12866 21-999): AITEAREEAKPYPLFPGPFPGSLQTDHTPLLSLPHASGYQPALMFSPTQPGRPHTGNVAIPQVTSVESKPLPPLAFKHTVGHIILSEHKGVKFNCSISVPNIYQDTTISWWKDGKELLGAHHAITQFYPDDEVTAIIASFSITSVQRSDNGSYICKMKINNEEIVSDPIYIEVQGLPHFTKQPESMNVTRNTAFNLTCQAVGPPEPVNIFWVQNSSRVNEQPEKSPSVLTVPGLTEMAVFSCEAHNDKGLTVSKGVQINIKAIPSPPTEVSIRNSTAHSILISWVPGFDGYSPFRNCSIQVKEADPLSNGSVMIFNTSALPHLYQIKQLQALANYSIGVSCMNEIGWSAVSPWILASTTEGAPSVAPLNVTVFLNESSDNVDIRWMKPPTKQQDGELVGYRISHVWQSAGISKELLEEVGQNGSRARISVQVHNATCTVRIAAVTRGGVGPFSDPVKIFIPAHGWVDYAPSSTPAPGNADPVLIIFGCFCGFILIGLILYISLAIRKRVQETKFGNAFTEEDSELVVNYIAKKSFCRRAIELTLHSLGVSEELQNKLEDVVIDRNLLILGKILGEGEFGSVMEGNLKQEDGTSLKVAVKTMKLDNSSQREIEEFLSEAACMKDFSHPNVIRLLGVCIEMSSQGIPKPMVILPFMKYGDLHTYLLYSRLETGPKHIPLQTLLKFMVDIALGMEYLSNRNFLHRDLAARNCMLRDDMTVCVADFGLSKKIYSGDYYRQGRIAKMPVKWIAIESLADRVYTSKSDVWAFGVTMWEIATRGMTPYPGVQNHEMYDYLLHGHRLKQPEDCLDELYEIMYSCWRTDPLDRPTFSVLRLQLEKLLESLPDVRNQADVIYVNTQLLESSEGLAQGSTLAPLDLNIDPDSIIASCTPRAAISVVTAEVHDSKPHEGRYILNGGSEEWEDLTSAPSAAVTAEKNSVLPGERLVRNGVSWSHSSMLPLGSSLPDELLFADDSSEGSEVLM
Sequence of Human KDR (residues 790-1356) (P35968 790-1356): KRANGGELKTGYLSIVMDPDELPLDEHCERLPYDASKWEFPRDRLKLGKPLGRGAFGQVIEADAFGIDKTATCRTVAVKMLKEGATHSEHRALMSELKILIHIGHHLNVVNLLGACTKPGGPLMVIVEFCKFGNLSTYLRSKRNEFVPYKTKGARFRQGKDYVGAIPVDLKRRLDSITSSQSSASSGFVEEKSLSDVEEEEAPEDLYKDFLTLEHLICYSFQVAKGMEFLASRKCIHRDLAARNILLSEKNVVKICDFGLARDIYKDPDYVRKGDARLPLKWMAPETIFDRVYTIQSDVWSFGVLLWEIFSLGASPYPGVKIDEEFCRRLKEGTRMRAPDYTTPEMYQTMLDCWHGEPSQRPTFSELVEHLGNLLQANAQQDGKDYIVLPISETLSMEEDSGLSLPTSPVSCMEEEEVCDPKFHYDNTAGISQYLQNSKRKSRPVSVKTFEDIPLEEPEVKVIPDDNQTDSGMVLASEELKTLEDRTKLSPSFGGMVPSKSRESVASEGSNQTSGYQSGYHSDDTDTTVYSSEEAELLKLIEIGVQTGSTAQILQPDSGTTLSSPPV
Sequence of Human MET (residues 956-1390) (P08581 956-1390): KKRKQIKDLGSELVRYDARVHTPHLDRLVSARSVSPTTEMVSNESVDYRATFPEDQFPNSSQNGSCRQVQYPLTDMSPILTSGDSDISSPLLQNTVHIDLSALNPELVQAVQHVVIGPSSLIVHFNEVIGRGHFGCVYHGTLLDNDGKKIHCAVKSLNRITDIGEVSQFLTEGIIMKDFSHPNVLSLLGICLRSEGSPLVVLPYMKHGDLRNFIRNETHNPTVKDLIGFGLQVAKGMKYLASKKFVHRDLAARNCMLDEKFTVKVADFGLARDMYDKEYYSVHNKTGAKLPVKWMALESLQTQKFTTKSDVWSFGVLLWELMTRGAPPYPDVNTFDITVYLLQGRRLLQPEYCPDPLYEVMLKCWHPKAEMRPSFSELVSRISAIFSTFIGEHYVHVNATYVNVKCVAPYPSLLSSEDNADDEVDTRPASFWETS
Sequence of KDR (phospho-KDR, VEGF165-stimulated HUVEC cells) (P35968 20-1356): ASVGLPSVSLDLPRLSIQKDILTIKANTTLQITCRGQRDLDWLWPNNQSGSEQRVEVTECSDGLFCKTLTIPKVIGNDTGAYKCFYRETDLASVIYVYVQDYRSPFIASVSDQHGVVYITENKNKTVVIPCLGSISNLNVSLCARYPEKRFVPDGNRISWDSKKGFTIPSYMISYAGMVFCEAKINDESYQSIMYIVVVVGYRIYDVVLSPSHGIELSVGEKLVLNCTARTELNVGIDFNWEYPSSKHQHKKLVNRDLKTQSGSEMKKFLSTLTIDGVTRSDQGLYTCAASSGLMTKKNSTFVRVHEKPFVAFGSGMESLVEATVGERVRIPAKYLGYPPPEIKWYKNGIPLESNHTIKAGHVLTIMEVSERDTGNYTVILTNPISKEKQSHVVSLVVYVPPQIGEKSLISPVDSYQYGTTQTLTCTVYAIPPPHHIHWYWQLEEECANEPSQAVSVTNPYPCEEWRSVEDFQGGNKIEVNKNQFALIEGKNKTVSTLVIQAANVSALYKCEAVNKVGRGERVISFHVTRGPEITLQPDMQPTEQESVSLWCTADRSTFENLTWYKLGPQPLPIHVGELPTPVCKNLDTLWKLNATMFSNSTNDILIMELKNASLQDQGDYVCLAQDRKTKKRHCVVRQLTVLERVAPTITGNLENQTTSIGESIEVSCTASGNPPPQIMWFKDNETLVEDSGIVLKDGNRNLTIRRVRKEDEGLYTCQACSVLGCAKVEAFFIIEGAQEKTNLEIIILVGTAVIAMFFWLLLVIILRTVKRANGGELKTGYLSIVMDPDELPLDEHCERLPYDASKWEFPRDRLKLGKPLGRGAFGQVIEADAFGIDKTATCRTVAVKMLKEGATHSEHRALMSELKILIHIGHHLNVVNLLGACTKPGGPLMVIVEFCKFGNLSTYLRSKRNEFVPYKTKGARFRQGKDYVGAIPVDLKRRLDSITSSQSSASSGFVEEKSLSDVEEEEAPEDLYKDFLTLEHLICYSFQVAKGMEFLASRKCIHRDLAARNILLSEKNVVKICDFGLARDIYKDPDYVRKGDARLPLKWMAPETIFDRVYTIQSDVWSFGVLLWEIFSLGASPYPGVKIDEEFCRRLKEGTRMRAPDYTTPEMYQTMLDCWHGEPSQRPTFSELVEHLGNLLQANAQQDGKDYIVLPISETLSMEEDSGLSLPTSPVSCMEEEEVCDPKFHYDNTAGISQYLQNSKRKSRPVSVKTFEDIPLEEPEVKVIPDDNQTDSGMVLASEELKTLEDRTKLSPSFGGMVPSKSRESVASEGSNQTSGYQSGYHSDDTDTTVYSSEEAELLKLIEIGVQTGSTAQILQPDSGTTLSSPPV

On to `COc1cnc2c(Oc3ccc(NC(=O)c4nnc(C)c(-c5ccc(F)cc5C)c4O)cc3F)ccnc2c1` (single isomer, unassigned) [Compound 249B, N-[3-Fluoro-4-[(7-methoxy-1,5-naphthyridin-4-yl)oxy]phenyl]-5-(4-fluoro-2-methylphenyl)-4-hydroxy-6-methylpyridazine-3-carboxamide], for which the half-maximal inhibitory concentration (IC50) in test [1] is greater than 300 nM; in test [2] it was less than 100 nM; in test [3] it was less than 100 nM; in test [4], less than 100 nM.
In the case of `COc1cnc2c(Oc3ccc(NC(=O)c4nnc(C)c(-c5ccc(F)cc5C)c4O)cc3F)ccnc2c1` (single isomer, unassigned) [Compound 249C, N-[3-Fluoro-4-[(7-methoxy-1,5-naphthyridin-4-yl)oxy]phenyl]-5-(4-fluoro-2-methylphenyl)-4-hydroxy-6-methylpyridazine-3-carboxamide], the IC50 in test [1] was greater than 300 nM; in test [2], less than 100 nM; in test [3] it was less than 100 nM; in test [4], less than 100 nM.
`COc1cc2nccc(Oc3ccc(NC(=O)c4cn(C(C)C)c(C)c(-c5cccc(F)c5)c4=O)cc3F)c2nc1OC` [Compound 30, N-[4-[(6,7-Dimethoxy-1,5-naphthyridin-4-yl)oxy]-3-fluorophenyl]-5-(3-fluorophenyl)-6-methyl-4-oxo-1-propan-2-ylpyridine-3-carboxamide hydrochloride]: the half-inhibitory concentration (IC50) in test [1] is less than 100 nM; in test [2], less than 100 nM; in test [3], less than 100 nM; in test [4] it was greater than 300 nM.
Turning to `COc1ccc(-c2c(C)n(C(C)C)cc(C(=O)Nc3ccc(Oc4ccnc5cc(OC)c(OC)nc45)c(F)c3)c2=O)cc1` [Compound 31, N-[4-[(6,7-dimethoxy-1,5-naphthyridin-4-yl)oxy]-3-fluorophenyl]-5-(4-methoxyphenyl)-6-methyl-4-oxo-1-propan-2-ylpyridine-3-carboxamide hydrochloride], the IC50 in test [1] was less than 100 nM; in test [2], less than 100 nM; in test [3], less than 100 nM; in test [4] it was greater than 300 nM.
As to `COc1cc2nccc(Oc3ccc(NC(=O)c4cn(C(C)C)c(C)c(-c5ccc(F)cc5C)c4=O)cc3F)c2nc1OC` [Compound 32, N-[4-[(6,7-Dimethoxy-1,5-naphthyridin-4-yl)oxy]-3-fluorophenyl]-5-(4-fluoro-2-methylphenyl)-6-methyl-4-oxo-1-propan-2-ylpyridine-3-carboxamide hydrochloride], the IC50 was 100 to 300 nM in test [1], less than 100 nM in test [2], less than 100 nM in test [3] and greater than 300 nM in test [4].
Regarding `COc1cc2nccc(Oc3ccc(NC(=O)c4cn(C)cc(-c5ccccc5)c4=O)cc3F)c2nc1OC` [Compound 33, N-[4-[(6,7-Dimethoxy-1,5-naphthyridin-4-yl)oxy]-3-fluorophenyl]-1-methyl-4-oxo-5-phenylpyridine-3-carboxamide hydrochloride], the IC50 in test [1], in test [2], in test [3] and in test [4] was less than 100 nM in each case.
With `COc1cc2nccc(Oc3ccc(NC(=O)c4cn(C)cc(-c5cccc(F)c5)c4=O)cc3F)c2nc1OC` [Compound 35, N-[4-[(6,7-Dimethoxy-1,5-naphthyridin-4-yl)oxy]-3-fluorophenyl]-5-(3-fluorophenyl)-1-methyl-4-oxopyridine-3-carboxamide hydrochloride], the IC50 in test [1], in test [2], in test [3] and in test [4] was less than 100 nM each time.
Take `COc1cc2nccc(Oc3ccc(NC(=O)c4cn(C)c(C)c(-c5ccccc5)c4=O)cc3F)c2nc1OC` [Compound 36, N-[4-[(6,7-Dimethoxy-1,5-naphthyridin-4-yl)oxy]-3-fluorophenyl]-1,6-dimethyl-4-oxo-5-phenylpyridine-3-carboxamide hydrochloride]: the IC50 is less than 100 nM in test [1], less than 100 nM in test [2], less than 100 nM in test [3] and 100 to 300 nM in test [4].
As to `COc1cc2nccc(Oc3ccc(NC(=O)c4cn(C)c(C)c(-c5cccc(F)c5)c4=O)cc3F)c2nc1OC` [Compound 37, N-[4-[(6,7-Dimethoxy-1,5-naphthyridin-4-yl)oxy]-3-fluorophenyl]-5-(3-fluorophenyl)-1,6-dimethyl-4-oxopyridine-3-carboxamide hydrochloride], the concentration for half-maximal inhibition (IC50) in test [1] is 100 to 300 nM; in test [2], less than 100 nM; in test [3] it was less than 100 nM; in test [4] it was 100 to 300 nM.
Turning to `COc1cnc2c(Oc3ccc(NC(=O)c4cnc(C)c(-c5ccc(F)cc5C)c4O)cc3)ccnc2c1` [Compound 176, 5-(4-Fluoro-2-methylphenyl)-4-hydroxy-N-[4-[(7-methoxy-1,5-naphthyridin-4-yl)oxy]phenyl]-6-methylpyridine-3-carboxamide], the IC50 in test [1] was greater than 300 nM; in test [2] it was less than 100 nM; in test [3] it was less than 100 nM; in test [4], less than 100 nM.
`COc1cc2nccc(Oc3ccc(NC(=O)c4c(C)nc(C)c(-c5ccc(F)cc5C)c4O)cc3F)c2nc1OC` [Compound 177, N-[4-[(6,7-Dimethoxy-1,5-naphthyridin-4-yl)oxy]-3-fluorophenyl]-5-(4-fluoro-2-methylphenyl)-4-hydroxy-2,6-dimethylpyridine-3-carboxamide]: the IC50 in test [1], in test [2], in test [3] and in test [4] was less than 100 nM in each case.
In the case of `COc1cnc2c(Oc3ccc(NC(=O)c4c(C)nc(C)c(-c5ccc(F)cc5C)c4O)cc3F)ccnc2c1` [Compound 178, N-[3-Fluoro-4-[(7-methoxy-1,5-naphthyridin-4-yl)oxy]phenyl]-5-(4-fluoro-2-methylphenyl)-4-hydroxy-2,6-dimethylpyridine-3-carboxamide], the IC50 in test [1], in test [2], in test [3] and in test [4] was less than 100 nM throughout.
As to `CCc1nc(C)c(-c2ccc(F)cc2)c(O)c1C(=O)Nc1ccc(Oc2ccnc3cc(OC)c(OC)nc23)c(F)c1` [Compound 179, N-[4-[(6,7-Dimethoxy-1,5-naphthyridin-4-yl)oxy]-3-fluorophenyl]-2-ethyl-5-(4-fluorophenyl)-4-hydroxy-6-methylpyridine-3-carboxamide], the IC50 in test [1], in test [2], in test [3] and in test [4] was less than 100 nM in each case.
For the molecule `CCc1nc(C)c(-c2ccc(F)cc2)c(O)c1C(=O)Nc1ccc(Oc2ccnc3cc(OC)cnc23)c(F)c1` [Compound 180, 2-Ethyl-N-[3-fluoro-4-[(7-methoxy-1,5-naphthyridin-4-yl)oxy]phenyl]-5-(4-fluorophenyl)-4-hydroxy-6-methylpyridine-3-carboxamide], the IC50 in test [1], in test [2], in test [3] and in test [4] was less than 100 nM each time.
As to `COc1cnc2c(Oc3ccc(NC(=O)c4cn(C)c(C)c(-c5ccc(F)cc5C)c4=O)cc3F)ccnc2c1` [Compound 181, N-[3-Fluoro-4-[(7-methoxy-1,5-naphthyridin-4-yl)oxy]phenyl]-5-(4-fluoro-2-methylphenyl)-1,6-dimethyl-4-oxopyridine-3-carboxamide], the IC50 was greater than 300 nM in test [1], less than 100 nM in test [2], less than 100 nM in test [3] and greater than 300 nM in test [4].
